# Patent publication EP3722296B1, “DIHYDRONAPHTHYRIDINES AND RELATED COMPOUNDS USEFUL AS KINASE INHIBITORS FOR THE TREATMENT OF PROLIFERATIVE DISEASES” (Deciphera Pharmaceuticals, LLC, priority 2012, dated 2013)
# Biological target: T1, AY502 duplication/D816G KIT (Homo sapiens, UniProt P10721, D816G/DUP502-503)
# T1 construct: V5 (vector-encoded); expressed in transfected cells; host or cells: CHO K1
# Test: CHO K1 phospho-KIT ELISA
# Format: cell-based
# Conditions: transient transfected CHO K1 cells, phospho-c-KIT (Tyr719), read-out: KIT kinase domain mutations (primary/secondary): AY502 duplication / D816G
# Description: CHO K1 cells (catalog #CCL-61) were obtained from the American Type Culture Collection, Manassas, VA. […] Cells were allowed to expand until reaching 70-95% confluency at which point they were subcultured or harvested for assay use.
# Cells were then incubated overnight at 37°C, 5% CO2, 95% RH. Transfection-grade pcDNA3.2 V5 DEST expression vector containing KIT variant, Lipofectamine LTX Reagent, and PLUS reagent (Invitrogen, Carlsbad, CA) were diluted into Opti-MEM® I medium (Invitrogen, Carlsbad, CA). The tube was incubated at room temperature to allow formation of DNA-Lipofectamine LTX complexes. The DNA-lipofectamine LTX complex mix was added directly to each well and mixed gently. Eighteen hours post-transfection, medium was replaced with serum-free RPMI medium. A serial dilution of test compound was added, and plates were incubated for 4 hours at 37°C, 5% CO2, 95% RH. Cell lysates were prepared, then phospho-c-KIT (Tyr719) was measured by using a Human phospho-c-KIT ELISA kit (Cell Signaling, Beverly, MA). Data was analyzed using Prism software (Graphpad, San Diego, CA) to calculate IC50 values.
# T1 sequence (P10721 with tags, fused parts or gaps DUP502-503/D816G): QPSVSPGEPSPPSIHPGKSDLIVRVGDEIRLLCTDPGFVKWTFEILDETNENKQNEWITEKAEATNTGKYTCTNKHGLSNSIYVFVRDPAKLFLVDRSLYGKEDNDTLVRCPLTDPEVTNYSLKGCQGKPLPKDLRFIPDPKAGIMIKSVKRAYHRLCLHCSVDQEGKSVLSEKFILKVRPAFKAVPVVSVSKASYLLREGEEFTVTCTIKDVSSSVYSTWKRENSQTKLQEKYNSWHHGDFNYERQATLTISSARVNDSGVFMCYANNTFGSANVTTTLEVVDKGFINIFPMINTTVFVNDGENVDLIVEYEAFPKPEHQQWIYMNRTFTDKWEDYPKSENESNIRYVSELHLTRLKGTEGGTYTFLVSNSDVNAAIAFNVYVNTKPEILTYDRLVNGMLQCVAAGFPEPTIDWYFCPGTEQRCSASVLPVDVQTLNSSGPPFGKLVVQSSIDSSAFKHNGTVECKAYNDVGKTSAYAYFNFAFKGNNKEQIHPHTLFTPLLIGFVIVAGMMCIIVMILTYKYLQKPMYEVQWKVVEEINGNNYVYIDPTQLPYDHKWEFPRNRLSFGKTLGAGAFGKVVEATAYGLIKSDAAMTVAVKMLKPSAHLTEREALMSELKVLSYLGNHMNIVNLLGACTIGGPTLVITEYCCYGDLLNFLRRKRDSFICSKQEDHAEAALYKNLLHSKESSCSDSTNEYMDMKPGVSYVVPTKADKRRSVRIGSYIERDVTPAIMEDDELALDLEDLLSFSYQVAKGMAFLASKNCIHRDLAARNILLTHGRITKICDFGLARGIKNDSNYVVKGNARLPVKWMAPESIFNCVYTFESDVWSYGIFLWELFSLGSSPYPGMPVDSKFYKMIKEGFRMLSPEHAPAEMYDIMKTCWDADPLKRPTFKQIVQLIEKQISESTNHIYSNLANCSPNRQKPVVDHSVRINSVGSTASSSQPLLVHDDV
smiles,measurement,value
"CCn1c(=O)c(-c2cc(NC(=O)Nc3ccccc3)c(F)cc2C)cc2cnc(NC)cc21 [Example 23, 1-(5-(1-ethyl-7-(methylamino)-2-oxo-1,2-dihydro-1,6-naphthyridin-3-yl)-2-fluoro-4-methylphenyl)-3-phenylurea]",IC50,0.01 to 0.1 µM
